Reference: patent publication US12048686B2, “Compositions and methods for activating NRF2-dependent gene expression” (The University of Chicago, priority 2018, dated 2024)
“Also recorded” adds a separate entry of the source.

Experiments:
[1] = LPS acute lung injury mouse model; assay type: in vivo; conditions: 50 mg/kg intraperitoneally
Method: FIG. 23. Mice treated with CBR-470-2 or vehicle (NaOH) IP and intratracheally instill LPS to induce acute lung injury.
Systemic CBR-470-2 treatment in acute lung injury mouse model reduces bronchial alveolar lavage (immune cells) cell TNF, IL1b and IL6 production (FIG. 23). C57/B6 Mice were treated with either CBR-470-2 (50 mg/kg dissolved in water and NaOH (1:1)) or vehicle (NaOH) intraperitoneally, and intratracheally instill 0.7 mg/kg of lipopolysaccharide (LPS) to induce […].

UVB skin damage model = conditions: mouse
Method: UVB Skin Damage Model. 32 5-week old Balb/c male mice were randomized into 4 groups of 8 animals such that each group had similar body weight means. Mice were prepared for removal of hair from their entire back two days prior to UVB exposure (day 3) by using an electric shaver and depilatory cream. On day 5, mice received exposure to UVB (200 mJ/cm^2) produced by a broad band UVB lamp (Dermapal UVB Rev 2) powered by a Kernel UV Phototherapy system. UVB exposure was confined to a rectangular area of ˜8 cm^2 by a lead shielding mask. UVB doses were confirmed by dosimeter measurements (Daavlin X96). Sham animals were shaved but received no UVB treatment. Mice were dosed from day 0 to study end at day 10 via oral gavage twice daily (CBR-470-2, 50 mg/kg BID PO; BARD, 3 mg/kg PO; Vehicle, 0.5% methyl cellulose/0.5% Tween80). Mice were monitored daily for body weight changes and erythema scoring from days 5 to 10. […] Blinded erythema scores were recorded by a blinded, trained investigator according to established in house scale. […]
Percent wounded area measurements. […] Red content corresponding to wounds was then quantified as a fraction of the whole imaging field and reported as percent wounded area.
Epidermal thickness measurements. […] 24 individual measurements of epidermal thickness from 8 sections spanning a 400 μm step distance were recorded per animal by a non-blinded, trained investigator. […]

IMR32 cells = assay: IMR32 viability with co-treatments (cell titer glo); assay type: cell-based
Method: FIG. 38. PGK1 toxicity can be rescued with metabolites that are involved with GSH biosynthesis and quenching of reactive oxygen species and methylglyoxal. […] IMR32 cells treated for 48 hr in presence of indicated drugs.
PGK1 toxicity can be rescued with metabolites that are involved with GSH biosynthesis and quenching of reactive oxygen species and methylglyoxal.
IMR32 cells were treated for 48 hrs with CBR-470-1 and/or BBGC at combinations of doses in a synergy matrix (FIG. 41). […] Viability measured using cell titer glo assay (Promega). Viability decreased at higher concentrations of CBR-470-1 and BBGC start at 5 uM. […] Sensitivity of cell lines to direct inhibition of GLO1 (which detoxifies MGO) is generally correlated with sensitivity to PGK1 inhibition with CBR-470-1-consistent with MGO buildup playing a role in toxicity.

What does the source list for `O=C(O)CN[C@H]1CS(=O)(=O)C[C@@H]1S(=O)(=O)c1ccc(Cl)c(Cl)c1` [CBR-470-2]?
IL6 gene expression, lung tissue ([1]; LPS): decreased gene expression of IL6; IL1b production, BAL cells ([1]; LPS 0.7 mg/kg intratracheally): decreased TNF, IL6, and IL1b production; IL6 production, BAL cells ([1]; LPS 0.7 mg/kg intratracheally): decreased TNF, IL6, and IL1b production; also recorded: decreased IL-6, and mRNA expression in immune cells (BAL cells); TNF production, BAL cells ([1]; LPS 0.7 mg/kg intratracheally): decreased TNF, IL6, and IL1b production; NRF2 signaling in vivo (pharmacodynamic and efficacy data) (UVB skin damage model): capable of modulating NRF2 signaling in vivo

With `CC1(C)CC(O)CC(C)(C)N1[O]` [Tempol] as the compound, how does the “effect of co-treatment with ROS scavenger on anti-proliferative effects of CBR-470-1” value (IMR32 cells; co-treatment with CBR-470-1) read?
The value was “does not effectively reduce anti-proliferative effects of CBR-470-1”.

With `CN(C)C(=N)N=C(N)N` [metformin] as the compound, how does the “effect of co-treatment on viability effects of PGK1 inhibition” value (IMR32 cells; across cell lines, on average, IMR32 48 hr) read?
The value was “do not strongly affect viability effects of PGK1 inhibition; also recorded: do not strongly effect viability effect of PGK1 inhibition”.
